From article PMC7226045, “Ensartinib (X-396) Effectively Modulates Pharmacokinetic Resistance Mediated by ABCB1 and ABCG2 Drug Efflux Transporters and CYP3A4 Biotransformation Enzyme” (Cancers, 2020)

Assays:
ABCG2 = molecular target: T1, ABCG2 (Homo sapiens, UniProt Q9UNQ0); assay: MDCKII monolayer transport assay, MDCKII-ABCG2; assay type: in vitro ADME; conditions: dog, 1 µM ensartinib, read-out: transport ratio (r), BA/AB
T1 construct: expressed in transfected cells; host or cells: MDCKII-ABCG2 (from Dr. Alfred Schinkel, The Netherlands Cancer Institute)
T1 sequence (Q9UNQ0 1-655): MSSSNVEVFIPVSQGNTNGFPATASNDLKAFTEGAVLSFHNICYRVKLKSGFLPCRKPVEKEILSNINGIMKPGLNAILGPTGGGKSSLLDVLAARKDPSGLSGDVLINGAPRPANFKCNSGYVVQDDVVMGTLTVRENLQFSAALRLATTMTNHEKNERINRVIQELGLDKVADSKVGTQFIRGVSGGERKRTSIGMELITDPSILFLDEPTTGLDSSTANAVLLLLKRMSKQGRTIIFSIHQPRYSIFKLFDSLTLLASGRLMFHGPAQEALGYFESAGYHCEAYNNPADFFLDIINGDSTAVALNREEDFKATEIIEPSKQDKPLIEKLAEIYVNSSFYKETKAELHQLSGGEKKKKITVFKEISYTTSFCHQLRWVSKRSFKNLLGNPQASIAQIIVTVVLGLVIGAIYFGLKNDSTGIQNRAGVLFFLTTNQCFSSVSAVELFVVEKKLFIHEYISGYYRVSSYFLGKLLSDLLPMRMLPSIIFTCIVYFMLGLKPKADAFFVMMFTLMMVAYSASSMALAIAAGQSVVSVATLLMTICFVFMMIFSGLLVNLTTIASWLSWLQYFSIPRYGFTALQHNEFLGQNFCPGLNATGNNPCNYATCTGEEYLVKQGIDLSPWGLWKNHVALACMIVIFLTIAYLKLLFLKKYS
Method: Transport assays were performed on microporous polycarbonate membrane filters (3 µm pore size, 24 mm diameter, Transwell 3414; Costar, Corning, NY, USA) using MDCKII parental as well as ABCB1-, ABCG2-, and ABCC1-overexpressing MDCKII cells. The cells were seeded at a density of 1.5 × 10^6 cells per insert and cultured to full confluence for 7 days with media exchanges on the second and fourth days. Before the start of the transport experiments, inserts were washed with 1 × PBS on both the apical and basal sides. The cells were then preincubated in Opti-MEM with or without model inhibitors (1 µM LY335979, 1 µM Ko143, or 25 µM MK-571). […] Ensartinib levels in samples were measured by UHPLC-MS/MS (see below). […]
Samples from the monolayer transport assays (10 µL) were mixed with 100 µL of acetonitrile and 100 µL of methanol, vortexed for 15 min, and centrifuged at 14,500 rpm for 3 min. […] The MS source parameters were set to the following: drying gas, 320 °C, flow rate 10 l/min; sheath gas, 400 °C at 12 l/min; nebulizer pressure 25 psi; capillary voltage 4000 V; nozzle voltage 0 V. Transitions of [M+H]^+ ions were detected using a dwell time of 150 ms, a cell acceleration of 4 V, and fragmentor voltages of 137 V for 547→357, 257 and 120 transitions (corresponding to collision energies of 16, 32, and 56 V).

[1] = XTT proliferation / drug combination assay, HL60-ABCG2; assay type: cell-based, human; conditions: human, HL60-ABCG2 cells, 48 h, XTT, read-out: IC50, sensitivity to ensartinib
Method: (§1) The MTT method is not readily adapted for use with suspension cell cultures, therefore the XTT assay was used to assess the proliferation of HL60 cells. Briefly, HL60-par, HL60-ABCB1, HL60-ABCG2, and HL60-ABCC1 cells were seeded at 2 × 10^4 cells/well in 96-well culture plates. Immediately after seeding, dilutions of the tested drugs or drug combinations were added to the cells. The plates were then incubated under standard conditions (37 °C, 5% CO2) for 48 h, after which XTT solution in PBS (1 mg/mL) and phenazine methosulfate (7.50 µg/mL) were added to the cells and the plates were incubated for another 5 h. Finally, the cells’ absorbance was measured at 450 nm using a microplate reader (Infinite M200, Tecan, Salzburg, Austria). This method was used to assess the effect of ABC transporters on sensitivity to ensartinib and in drug combination assays.
(§2) Experiments focusing on the modulation of ABC transporter-mediated resistance were performed as described previously. The parent MDCKII and HL60 cells and their ABCB1-, ABCG2-, and ABCC1-overexpressing counterparts were seeded at the densities specified above onto 96-well culture plates and cultured for 24 h. The medium was subsequently replaced with serial dilutions of ensartinib alone or with various concentrations of a model MDR-susceptible cytostatic agent (daunorubicin or mitoxantrone) with or without 10 µM ensartinib. After 48 h incubation, the cells’ viability was determined as described above. In addition to performing IC50-shift analyses, the viability measurements were converted to FA (fraction of cells affected) values and the effects of drug combinations were quantified using the Chou-Talalay combination index (CI) method as implemented in CompuSyn 3.0.1 (ComboSyn Inc., Paramus, NJ, USA). The effects of concomitantly administered drugs were classified as synergistic (CI < 0.9), additive (0.9 < CI < 1.1), or antagonistic (CI > 1.1) based on the computed CI values.

HL60-ABCG2 cells = assay: as above; assay type: cell-based, human
Method: as §1, §2

## C[C@@H]1CN(C(=O)c2ccc(NC(=O)c3cc(O[C@H](C)c4c(Cl)ccc(F)c4Cl)c(N)nn3)cc2)C[C@H](C)N1 [ensartinib, Ensartinib]
ABCG2
  efflux ratio at 4 h, 1 µM: 1.15
[1]
  IC50 at 48 h: 24.3 µM
HL60-ABCG2 cells; 10 µM ensartinib with mitoxantrone
  combination effect (Chou-Talalay combination index): synergistic (synergistic (CI < 0.9))
HL60-ABCG2 cells; mitoxantrone, IC50 single drug / IC50 combined with 10 µM ensartinib
  RR (reversal ratio): 18.6
